Patent publication US20230348424A1, “HETEROCYCLIC COMPOUNDS AND METHODS OF USE” (Schrödinger, Inc., priority 2022, published 2023)

Key:
human SOS1 = human SOS1 (Homo sapiens (Human), UniProt Q07889); assay: Surface Plasmon Resonance (SPR) SOS1 Binding Assay; settings: biotinylated SOS1 (res. 564-1049), Biacore 8K, 25° C., kinetic or steady state fit, 1:1 binding; read-out: hSOS1 KD
Method: Binding to SOS1 was measured using a SPR assay with purified recombinant human SOS1 substrate (res. 564-1049 with N-terminal Avi tag; purified and biotinylated based on Hillig, et al., Proc Natl Acad Sci USA (2019); 116(7):2551-2560). SPR measurements were performed on a Biacore 8K SPR instrument (GE Healthcare, Sweden). Assays were performed at 25° C. using Series S SA sensor chips pre-coated with streptavidin (GE Healthcare, Cat. BR100531). Biotinylated SOS1 diluted in sample buffer (20 mM Tris HCI, 150 mM NaCl, 1 mM DTT, 0.05% TWEEN 20, 1 mM MgCh, pH 8.0) was captured to one flow cell of the chip to about 3,000 resonance units (RU) using sample buffer supplemented with 5% DMSO as a running buffer. Serial dilutions of the assayed compounds in the running buffer at 100, 50 or 0.5 µM were injected for 60 s at a flow rate of 30 µL/min and association phases were recorded. Dissociation of the samples was monitored for 600 s. Data processing was performed using Biacore Insight Software (Biacore, GE Healthcare). Sensorgrams recorded on a SA flow cell without captured protein were subtracted from sensorgrams recorded on the SOS1 surface. Blank injections of running buffer were used for double referencing and solvent correction was applied to all sample sensorgrams to correct for buffer mismatches. KDS were estimated using a kinetic or steady state, where applicable, fitting model describing a reversible equilibrium with 1:1 binding between SOS1 and the compound.

[1] = biological target: SOS1:KRAS (G12C) interaction (Homo sapiens (Human), UniProt Q07889); assay: SOS1 KRas(G12C) FRET Assay; type: binding; settings: 0.5 nM His10-SOS1 (res. 564-1049), 2.5 nM GST-KRAS G12C (res. 1-169), 2 hrs at RT
Method in brief: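 GST-KRAS G12C (res. 1-169) at 2.5 nM and His10-SOS1 (res. 564-1049) at 0.5 nM, final, in PBS with 0.1% BSA, 5 mM MgCl2, 100 mM KF, 5 mM DTT and 0.5% DMSO. After 2 h at RT, FRET read at 665/615 nm and normalized to DMSO and no-SOS1 controls. IC50 by non-linear regression.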

Chain of SOS1:KRAS (G12C) interaction (Q07889 564-1049, stated change not applied): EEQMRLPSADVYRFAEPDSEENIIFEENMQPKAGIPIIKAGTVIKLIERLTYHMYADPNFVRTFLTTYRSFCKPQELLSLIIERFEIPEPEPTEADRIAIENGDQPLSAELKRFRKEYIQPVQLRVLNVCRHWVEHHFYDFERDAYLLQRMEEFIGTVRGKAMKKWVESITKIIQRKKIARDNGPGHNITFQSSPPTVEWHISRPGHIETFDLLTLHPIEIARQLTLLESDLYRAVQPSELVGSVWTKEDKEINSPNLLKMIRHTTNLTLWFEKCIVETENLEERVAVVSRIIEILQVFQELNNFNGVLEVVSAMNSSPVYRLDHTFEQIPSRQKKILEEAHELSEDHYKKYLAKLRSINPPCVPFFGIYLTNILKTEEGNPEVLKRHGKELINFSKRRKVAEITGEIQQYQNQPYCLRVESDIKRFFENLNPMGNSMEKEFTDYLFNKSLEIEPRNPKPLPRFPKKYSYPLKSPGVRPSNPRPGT
Chain of human SOS1 (Q07889 564-1049): as the sequence (Q07889 564-1049, stated change not applied) above

SMILES | Kd (human SOS1) | IC50 [1]
C[C@@H](NC(=O)c1cn([C@H]2CC2(F)F)c(=O)cc1N[C@H]1[C@@H]2CN(C)C[C@@H]21)c1cccc(C(F)F)c1F [Example 93, 1-((S)-2,2-difluorocyclopropyl)-N-((R)-1-(3-(difluoromethyl)-2-fluorophenyl)ethyl)-4-(((lR,5S,6s)-3-methyl-3-azabicyclo[3.1.0]hexan-6-yl)amino)-6-oxo-1,6-dihydropyridine-3-carboxamide] | 13 nM | 23.2 nM
C[C@@H](NC(=O)c1cn(C(C)(C)C2CC2)c(=O)cc1N[C@H]1[C@@H]2CN(C)C[C@@H]21)c1cccc(C(F)F)c1F [Example 108, 1-(2-cyclopropylpropan-2-yl)-N-((R)-1-(3-(difluoromethyl)-2-fluorophenyl)ethyl)-4-(((1R,5S,6s)-3-methyl-3-azabicyclo[3.1.0]hexan-6-yl)amino)-6-oxo-1,6-dihydropyridine-3-carboxamide] | 343 nM | 147 nM
C[C@@H](NC(=O)c1cn(C2(C(F)F)CC2)c(=O)cc1NCCN(C)C)c1cccc(C(F)F)c1F [Example 61, (R)-N-(1-(3-(difluoromethyl)-2-fluorophenyl)ethyl)-1-(1-(difluoromethyl)cyclopropyl)-4-((2-(dimethylamino)ethyl)amino)-6-oxo-1,6-dihydropyridine-3-carboxamide] | 34 nM | 65 nM
C[C@@H](NC(=O)c1cn(C2(C(F)F)CC2)c(=O)cc1NCCN1CCOCC1)c1cccc(C(F)F)c1F [Example 81, (R)-N-(1-(3-(difluoromethyl)-2-fluorophenyl)ethyl)-1-(1-(difluoromethyl)cyclopropyl)-4-((2-morpholinoethyl)amino)-6-oxo-1,6-dihydropyridine-3-carboxamide] | 96 nM | 174 nM
C[C@@H](NC(=O)c1cn(C2(C(F)F)CC2)c(=O)cc1NC1CCN(C)CC1)c1cccc(C(C)(F)F)c1F [Example 51, (R)-N-(1-(3-(1,1-difluoroethyl)-2-fluorophenyl)ethyl)-1-(1-(difluoromethyl)cyclopropyl)-4-((1-methylpiperidin-4-yl)amino)-6-oxo-1,6-dihydropyridine-3-carboxamide] | 8 nM | 18.5 nM
C[C@@H](NC(=O)c1cn([C@H]2CCC2(F)F)c(=O)cc1NCC1(F)CN(C)C1)c1cccc(C(F)F)c1F [Example 146, 1-((S)-2,2-difluorocyclobutyl)-N-((R)-1-(3-(difluoromethyl)-2-fluorophenyl)ethyl)-4-(((3-fluoro-1-methylazetidin-3-yl)methyl)amino)-6-oxo-1,6-dihydropyridine-3-carboxamide] | 9 nM | 5.4 nM
C[C@@H](NC(=O)c1cn([C@@H]2CCOC[C@H]2F)c(=O)cc1NC1CCN(C)CC1)c1cccc(C(F)F)c1F [Example 79, N-((R)-1-(3-(difluoromethyl)-2-fluorophenyl)ethyl)-1-((3S,4R)-3-fluorotetrahydro-2H-pyran-4-yl)-4-((1-methylpiperidin-4-yl)amino)-6-oxo-1,6-dihydropyridine-3-carboxamide] | 2 nM | 3.7 nM
C[C@@H](NC(=O)c1cn([C@H]2CCOC[C@@H]2F)c(=O)cc1NC1CCN(C)CC1)c1cccc(C(F)F)c1F [Example 80, N-((R)-1-(3-(difluoromethyl)-2-fluorophenyl)ethyl)-1-((3R,4S)-3-fluorotetrahydro-2H-pyran-4-yl)-4-((1-methylpiperidin-4-yl)amino)-6-oxo-1,6-dihydropyridine-3-carboxamide] | 8 nM | 16.7 nM
C[C@@H](NC(=O)c1cn(C2(C(F)F)CC2)c(=O)cc1NC[C@H]1CC2CCN1CC2)c1cccc(C(F)F)c1F [Example 86, N-((R)-1-(3-(difluoromethyl)-2-fluorophenyl)ethyl)-1-(1-(difluoromethyl)cyclopropyl)-6-oxo-4-((((R)-quinuclidin-2-yl)methyl)amino)-1,6-dihydropyridine-3-carboxamide] | 29 nM | 73.1 nM
Cc1c([C@@H](C)NC(=O)c2cn(C3CCOCC3)c(=O)cc2N[C@H]2CC[C@H](O)C2)cccc1C(F)(F)F [Example 13, 4-(((1S,3S)-3-hydroxycyclopentyl)amino)-N-((R)-1-(2-methyl-3-(trifluoromethyl)phenyl)ethyl)-6-oxo-1-(tetrahydro-2H-pyran-4-yl)-1,6-dihydropyridine-3-carboxamide] | 91 nM | 155 nM
C[C@@H](NC(=O)c1cn(C2CC2)c(=O)cc1N[C@@H]1[C@@H]2CC[C@H]1CN(C)C2)c1cccc(C(F)F)c1F (single isomer, unassigned) [Example 140] | 7 nM | 15.2 nM
Cc1c([C@@H](C)NC(=O)c2cn(C3CCOCC3)c(=O)cc2N[C@@H]2CC[C@@H](O)C2)cccc1C(F)(F)F [Example 14, 4-(((1R,3R)-3-hydroxycyclopentyl)amino)-N-((R)-1-(2-methyl-3-(trifluoromethyl)phenyl)ethyl)-6-oxo-1-(tetrahydro-2H-pyran-4-yl)-1,6-dihydropyridine-3-carboxamide] | 103 nM | 225 nM
C[C@@H](NC(=O)c1cn(C2(C(F)F)CC2)c(=O)cc1N[C@H]1C[C@@H]2CN(C)C[C@@H]2C1)c1cccc(C(F)F)c1F [Example 125, N-((R)-1-(3-(difluoromethyl)-2-fluorophenyl)ethyl)-1-(1-(difluoromethyl)cyclopropyl)-4-(((3aR,5s,6aS)-2-methyloctahydrocyclopenta[c]pyrrol-5-yl)amino)-6-oxo-1,6-dihydropyridine-3-carboxamide] | 13 nM | 27.7 nM
C[C@@H](NC(=O)c1cn(C23CC(C(F)(F)F)(C2)C3)c(=O)cc1N[C@H]1[C@@H]2CN(C)C[C@@H]21)c1cccc(C(F)F)c1F [Example 106, N-((R)-1-(3-(difluoromethyl)-2-fluorophenyl)ethyl)-4-(((1R,5S,6s)-3-methyl-3-azabicyclo[3.1.0]hexan-6-yl)amino)-6-oxo-1-(3-(trifluoromethyl)bicyclo[1. 1.1]pentan-1-yl)-1,6-dihydropyridine-3-carboxamide] | 19 nM | 16.8 nM
C[C@@H](NC(=O)c1cn([C@H]2CC2(C)C)c(=O)cc1N[C@H]1[C@@H]2CN(C)C[C@@H]21)c1cccc(C(F)F)c1F [Example 95, N-((R)-1-(3-(difluoromethyl)-2-fluorophenyl)ethyl)-1-((S)-2,2-dimethylcyclopropyl)-4-(((lR,5S,6s)-3-methyl-3-azabicyclo[3.1.0]hexan-6-yl)amino)-6-oxo-1,6-dihydropyridine-3-carboxamide] | 12 nM | 21.6 nM
C[C@@H](NC(=O)c1cn(C23CC(C2)C3)c(=O)cc1N[C@@H]1CN2CCC1CC2)c1cccc(C(F)F)c1F [Example 156, 1-(bicyclo[1.1.1]pentan-1-yl)-N-((R)-1-(3-(difluoromethyl)-2-fluorophenyl)ethyl)-6-oxo-4-(((S)-quinuclidin-3-yl)amino)-1,6-dihydropyridine-3-carboxamide] | 3 nM | 12.4 nM
C[C@@H](NC(=O)c1cn([C@H]2C[C@@H]2C(F)F)c(=O)cc1N[C@H]1[C@@H]2CN(C)C[C@@H]21)c1cccc(C(F)F)c1F [Example 113, N-((R)-1-(3-(difluoromethyl)-2-fluorophenyl)ethyl)-1-((1S,2S)-2-(difluoromethyl)cyclopropyl)-4-(((1R,5S,6s)-3-methyl-3-azabicyclo[3.1.0]hexan-6-yl)amino)-6-oxo-1,6-dihydropyridine-3-carboxamide] | 6 nM | 10.5 nM
CO[C@H]1CN(C)CC[C@@H]1Nc1cc(=O)n(C2CCOCC2)cc1C(=O)N[C@H](C)c1cccc(C(F)(F)F)c1C (single isomer, unassigned) [Example 25] | 45 nM | 71.3 nM
C[C@@H](NC(=O)c1cn([C@]2(C)CCOC2)c(=O)cc1NC1CCN(C)CC1)c1cccc(C(F)F)c1F (single isomer, unassigned) [Example 48] | 7 nM | 25.6 nM
C[C@@H](NC(=O)c1cn(C2(C(F)F)CC2)c(=O)cc1NC1CCN(CCF)CC1)c1cccc(C(F)F)c1F [Example 82, (R)-N-(1-(3-(difluoromethyl)-2-fluorophenyl)ethyl)-1-(1-(difluoromethyl)cyclopropyl)-4-((1-(2-fluoroethyl)piperidin-4-yl)amino)-6-oxo-1,6-dihydropyridine-3-carboxamide] | 17 nM | 26.3 nM
CO[C@@H]1CN(C)CC[C@H]1Nc1cc(=O)n(C2CCOCC2)cc1C(=O)N[C@H](C)c1cccc(C(F)(F)F)c1C (single isomer, unassigned) [Example 24] | 27 nM | 40 nM
